Reference: PubChem BioAssay AID1963840 (Molecular Pharmacology Branch, DTP, NCI, 2024)
Where “and” joins values, the source holds several entries; their conditions need not be identical. Identical values can stand only once.

Test system: 695427-040-R-J1-PDC complex spheroid viability
Assay: Anticancer human tumor 695427-040-R-J1-PDC patient-derived colon adenocarcinoma cell line growth inhibition [POLQ]
Conditions: for viability, T/C: stronger effect = lower value
Method in brief: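 Growth inhibition in 3D: complex spheroids (tumor PDC, HUVEC, MSC) treated with POLQ inhibitor combinations; where Cmax unknown, highest tested concentration 10 microM, except SN-38 at 1 microM.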
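Note: spheroids exposed to compounds for seven days.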
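Throughout, for viability, T/C: 100% = DMSO vehicle control viability.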

Work on `COc1cc2cc(C(=O)CCC(=O)O)sc2cc1OC` + Nc1ccc(C#CCN(C(=O)Cc2ncc(C(F)(F)F)cc2C(F)(F)F)c2ccc(F)cc2)nn1 yielded an IC50 (curve of first compound, second compound 0.0316 µM) of over 10 µM, an IC50 (curve of first compound, second compound 0.1 µM) of over 10 µM and an IC50 (curve of first compound, second compound 0.316 µM) of over 10 µM. It also gave an IC50 (curve of first compound, second compound 1 µM) of over 10 µM, an IC50 (curve of first compound, second compound 3.16 µM) of over 10 µM and an IC50 (curve of first compound, second compound 10 µM) of over 10 µM. It also gave a viability, T/C (second compound 0.0316 µM, first compound 0.0316 µM) of 111%, a viability, T/C (second compound 0.0316 µM, first compound 0.1 µM) of 92% and a viability, T/C (second compound 0.0316 µM, first compound 0.316 µM) of 103%. The viability, T/C (second compound 0.0316 µM, first compound 1 µM) was 115%, the viability, T/C (second compound 0.0316 µM, first compound 3.16 µM) was 105% and the viability, T/C (second compound 0.0316 µM, first compound 10 µM) was 92.1%. It also gave a viability, T/C (second compound 0.1 µM, first compound 0.0316 µM) of 109%, a viability, T/C (second compound 0.1 µM, first compound 0.1 µM) of 118% and a viability, T/C (second compound 0.1 µM, first compound 0.316 µM) of 103%. It also gave a viability, T/C (second compound 0.1 µM, first compound 1 µM) of 102%, a viability, T/C (second compound 0.1 µM, first compound 3.16 µM) of 115% and a viability, T/C (second compound 0.1 µM, first compound 10 µM) of 96.6%. For the same compound, the viability, T/C (second compound 0.316 µM, first compound 0.0316 µM) was 111%, the viability, T/C (second compound 0.316 µM, first compound 0.1 µM) was 109% and the viability, T/C (second compound 0.316 µM, first compound 0.316 µM) was 94.1%. It also gave a viability, T/C (second compound 0.316 µM, first compound 1 µM) of 109%, a viability, T/C (second compound 0.316 µM, first compound 3.16 µM) of 105% and a viability, T/C (second compound 0.316 µM, first compound 10 µM) of 98.9%. The viability, T/C (second compound 1 µM, first compound 0.0316 µM) was 109%, the viability, T/C (second compound 1 µM, first compound 0.1 µM) was 100% and the viability, T/C (second compound 1 µM, first compound 0.316 µM) was 104%. It also gave a viability, T/C (second compound 1 µM, first compound 1 µM) of 108%, a viability, T/C (second compound 1 µM, first compound 3.16 µM) of 120% and a viability, T/C (second compound 1 µM, first compound 10 µM) of 89.7%. It also gave a viability, T/C (second compound 3.16 µM, first compound 0.0316 µM) of 111%, a viability, T/C (second compound 3.16 µM, first compound 0.1 µM) of 101% and a viability, T/C (second compound 3.16 µM, first compound 0.316 µM) of 102%. It also gave a viability, T/C (second compound 3.16 µM, first compound 1 µM) of 99.1%, a viability, T/C (second compound 3.16 µM, first compound 3.16 µM) of 106% and a viability, T/C (second compound 3.16 µM, first compound 10 µM) of 86.4%. It also gave a viability, T/C (second compound 10 µM, first compound 0.0316 µM) of 105%, a viability, T/C (second compound 10 µM, first compound 0.1 µM) of 105% and a viability, T/C (second compound 10 µM, first compound 0.316 µM) of 98.7%. For the same compound, the viability, T/C (second compound 10 µM, first compound 1 µM) was 87.4%, the viability, T/C (second compound 10 µM, first compound 3.16 µM) was 102% and the viability, T/C (second compound 10 µM, first compound 10 µM) was 102%.

In the case of `O=C(Nc1ccc(O)c(NS(=O)(=O)c2ccc(F)cc2)c1)c1ccc(-c2ccccc2)cc1`, the viability, T/C (compound 0.0316 µM) is reported as 112% and 106% (2×), the viability, T/C (compound 0.1 µM) is reported as 94.9% and 102% and 99.2% and the viability, T/C (compound 0.316 µM) is reported as 99.2% and 96.5% and 105%. For the same compound, the viability, T/C (compound 1 µM) was 106% and 111% and 105%, the viability, T/C (compound 3.16 µM) was 102% and 101% and 110% and the viability, T/C (compound 10 µM) was 94% and 98.5% and 90.2%. For the same compound, the IC50 (curve of compound) was over 10 µM.
